From patent US10188758B2, “Organic compounds” (INTRA-CELLULAR THERAPIES, INC., priority 2015, dated 2019)
Entries after “also recorded” stand apart in the source; their conditions may differ.

What was measured:
human NET = human NET (Homo sapiens (Human), UniProt P23975); experiment: Novascreen Norepinephrine, Transporter NET (h) binding, recombinant CHO cells, [3H]-Nisoxetine
Excerpt: (§1) The NET and SERT binding may be assayed to determine if the compounds of the disclosure specifically bind to NET or SERT. An exemplary procedure for assaying NET binding may be found in Raisman et al., Eur. Jrnl. Pharmacol. (1982) 78:345-351 and in Langer et al., Eur. Jrnl. Pharmac. (1981) 72:423. An exemplary procedure for assaying SERT binding may be found in D'Amato et al., Jrnl. Pharmcacol. & Exp. Ther. (1987) 242:364-371 and in Brown et al., Eur. Jrnl. Pharmac. (1986) 123:161-165. The contents of each of these references are incorporated by reference in their entirety.
(§2) The binding affinity of the compounds of the current disclosure is measured using a Novascreen against rodent NET, human NET and human SERT. Duloxetine is used as a positive control. Details of the Novascreen may be found in the following: • http://www.perkinelmer.com/Catalog/Product/ID/100-0123, • http://www.perkinelmer.com/Catalog/Product/ID/100-0048, • http://www.perkinelmer.com/Catalog/Product/ID/100-0146, and • http://www.perkinelmer.com/Catalog/Product/ID/100-0099.
For the binding affinity of the compounds of the current disclosure against NET, the following paramenters are used: • Assay Type: Binding • Species: Rat • Origin: Forebrain • Ligand: [3H]-Nisoxetine • Ligand [M]: 1.00E-09 • Kd (Binding Affinity): 9.00E-10 • Bmax: 10.5 fmol/mg tissue (wet weight) • Method: Radioactivity • Measurement: DPM • Assay Name: Norepinephrine, Transporter NET (h) • Assay Type: Binding • Species: Human • Origin: Recombinant/CHO cells • Ligand: [3H]-Nisoxetine • Ligand [M]: 1.00E-09 • Kd (Binding Affinity): 3.00E-09 • Bmax: 10 pmol/mg protein • Method: Radioactivity • Measurement: DPM

human SERT = human SERT (Homo sapiens (Human), UniProt P31645); experiment: Novascreen Serotonin, Transporter SERT (h) binding, platelets, [3H]Citalopram, N-Methyl
Excerpt: as §1, §2
For the binding affinity of the compounds of the current disclosure for SERT, the following paramenters are used: • Assay Name: Serotonin, Transporter SERT (h) • Assay Type: Binding • Species: Human • Origin: Platelets • Ligand: [3H]Citalopram, N-Methyl • Ligand [M]: 7.00E-10 • Kd (Binding Affinity): 2.50E-09 • Bmax: 425 fmol/mg protein • Method: Radioactivity • Measurement: DPM

naloxone-induced flush = experiment: Morphine-dependent rat model of hot flashes (naloxone-induced flush, tail skin temperature); assay type: in vivo; settings: 30 mg/kg p.o., FIG. 1
Excerpt: Morphine-dependent Rat Model: The effectiveness of the compounds of the present disclosure to reduce hot flashes may be evaluated by measuring its ability to reduce morphine-induced rise in TST. Ovariectomized rats may be subcutaneously injected with a vehicle (sterile water) once daily for 8 days. On day-4, two tablets of slow-release morphine may be implanted subcutaneously in the dorsal scapular region of the rats to induce morphine dependence. On day-5 and -6, morphine withdrawal may be induced by subcutaneous administration of 1.0 mg/Kg of naloxone, a general opioid antagonist. […] Ketamine (40 mg/Kg) may be injected after test compound to induce sedation so as to avoid temperature fluctuation due to stress associated with restriction of their movement and attachment of thermistor probe to the their tails. All drug- related effects may be compared to a vehicle control group which also receives ketamine. TST may be monitored continuously for 35 minutes. The average TST measured 25, 30 and 35 minutes prior to naloxone injection may be used to establish a baseline temperature. Hot flash reduction may be determined by evaluating the statistical differences between the baseline temperature and 15 minutes after naloxone treatment when the change in TST may be observed to be maximum.

Sequence of human NET (P23975 whole entry): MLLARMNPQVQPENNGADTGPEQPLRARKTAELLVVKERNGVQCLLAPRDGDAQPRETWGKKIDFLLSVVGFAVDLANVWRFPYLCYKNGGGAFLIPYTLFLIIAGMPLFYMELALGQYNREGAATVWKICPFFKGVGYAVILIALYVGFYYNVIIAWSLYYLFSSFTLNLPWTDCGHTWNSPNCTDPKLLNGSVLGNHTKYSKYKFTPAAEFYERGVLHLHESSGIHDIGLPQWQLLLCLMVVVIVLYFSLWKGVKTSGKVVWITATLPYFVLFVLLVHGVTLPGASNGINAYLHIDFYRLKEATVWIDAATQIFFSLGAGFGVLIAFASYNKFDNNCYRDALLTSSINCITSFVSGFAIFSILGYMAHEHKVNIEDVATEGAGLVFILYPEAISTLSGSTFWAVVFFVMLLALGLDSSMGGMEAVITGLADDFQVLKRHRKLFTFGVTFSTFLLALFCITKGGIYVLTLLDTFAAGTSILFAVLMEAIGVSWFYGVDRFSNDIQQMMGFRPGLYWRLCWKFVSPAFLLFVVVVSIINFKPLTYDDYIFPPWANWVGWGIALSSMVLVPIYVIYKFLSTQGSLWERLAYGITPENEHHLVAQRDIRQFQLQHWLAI
Sequence of human SERT (P31645 whole entry): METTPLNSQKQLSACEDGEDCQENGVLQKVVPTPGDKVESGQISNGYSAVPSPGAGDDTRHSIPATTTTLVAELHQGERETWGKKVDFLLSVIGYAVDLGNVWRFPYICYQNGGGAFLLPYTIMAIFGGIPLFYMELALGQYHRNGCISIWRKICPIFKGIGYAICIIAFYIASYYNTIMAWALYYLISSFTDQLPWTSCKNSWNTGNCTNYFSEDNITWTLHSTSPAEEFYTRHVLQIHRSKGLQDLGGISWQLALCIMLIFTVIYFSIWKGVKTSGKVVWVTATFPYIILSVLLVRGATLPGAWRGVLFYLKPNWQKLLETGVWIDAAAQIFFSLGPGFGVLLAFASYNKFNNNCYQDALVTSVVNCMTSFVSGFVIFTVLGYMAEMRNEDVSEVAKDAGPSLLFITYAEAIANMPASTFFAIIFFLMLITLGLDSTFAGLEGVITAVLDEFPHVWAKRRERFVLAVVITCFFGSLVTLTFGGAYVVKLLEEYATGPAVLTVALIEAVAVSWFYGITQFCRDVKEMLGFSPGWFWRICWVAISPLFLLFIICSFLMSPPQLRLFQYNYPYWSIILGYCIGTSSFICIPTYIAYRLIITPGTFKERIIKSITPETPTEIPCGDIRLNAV

CCNCC[C@@H](Oc1cccnc1OC)c1ccccc1 [Compound 4, (R)-N-ethyl-3-(2-methoxypyridin-3-yloxy)-3-phenylpropan-1-amine]
Ki (human NET): 81.4 nM | Ki (human SERT): 240 nM

CCNCC[C@@H](Oc1cccnc1OCC)c1ccccc1 [Compound 5, (R)-3-(2-ethoxypyridin-3-yloxy)-N-ethyl-3-phenylpropan-1-amine]
Ki (human NET): 37.3 nM | Ki (human SERT): 579 nM

CNCC[C@@H](Oc1cccnc1OCCO)c1ccccc1 [Example 1, (R)-2-(3-(3-(Methylamino)-1-phenylpropoxy)pyridin-2-yloxy)ethanol]
Ki (human NET): 39 nM

CCOc1ncccc1O[C@H](CCN)c1ccccc1 [Example 2, (R)-3-Phenyl-3-(2-ethoxypyridin-3-yloxy)propan-1-amine]
Ki (human NET): 69 nM

CCOc1ncccc1O[C@H](CCNC)c1ccccc1 [Example 3, (R)-3-(2-Ethoxypyridin-3-yloxy)-N-methyl-3-phenylpropan-1-amine]
reduction of naloxone-induced flush (naloxone-induced flush): effective in reducing naloxone-induced flush; also recorded: effective in reducing naloxone-inducted flush | Ki (human NET): 4.2 nM | Ki (human SERT): 318 nM
